Among the data in ChEMBL document CHEMBL3425503, “Synthesis and studies on the mGluR agonist activity of FAP4 stereoisomers” (Bioorg Med Chem Lett, 2015) are EC50 and Activity values, retold here.

What all share (format): functional, cell-based
Experiment [1] addresses Metabotropic glutamate receptor 6 (Rattus norvegicus, UniProt P35349). The experiment in a line: Agonist activity at rat mGluR6 expressed in HEK293 cells assessed as induction of inositol phosphate production by HTRF assay. (In general: Time-resolved FRET reads energy transfer from a long-lived donor to a nearby acceptor.)
Experiment [2] concerns the target Metabotropic glutamate receptor 2 (Rattus norvegicus, UniProt P31421). In words: Agonist activity at rat mGluR2 expressed in HEK293 cells assessed as induction of inositol phosphate production by HTRF assay.
The target of experiment [3] is Metabotropic glutamate receptor 7 (Rattus norvegicus, UniProt P35400). In words: Agonist activity at rat mGluR7 expressed in HEK293 cells assessed as induction of inositol phosphate production by HTRF assay.
Sequence of Metabotropic glutamate receptor 7 (P35400 whole entry): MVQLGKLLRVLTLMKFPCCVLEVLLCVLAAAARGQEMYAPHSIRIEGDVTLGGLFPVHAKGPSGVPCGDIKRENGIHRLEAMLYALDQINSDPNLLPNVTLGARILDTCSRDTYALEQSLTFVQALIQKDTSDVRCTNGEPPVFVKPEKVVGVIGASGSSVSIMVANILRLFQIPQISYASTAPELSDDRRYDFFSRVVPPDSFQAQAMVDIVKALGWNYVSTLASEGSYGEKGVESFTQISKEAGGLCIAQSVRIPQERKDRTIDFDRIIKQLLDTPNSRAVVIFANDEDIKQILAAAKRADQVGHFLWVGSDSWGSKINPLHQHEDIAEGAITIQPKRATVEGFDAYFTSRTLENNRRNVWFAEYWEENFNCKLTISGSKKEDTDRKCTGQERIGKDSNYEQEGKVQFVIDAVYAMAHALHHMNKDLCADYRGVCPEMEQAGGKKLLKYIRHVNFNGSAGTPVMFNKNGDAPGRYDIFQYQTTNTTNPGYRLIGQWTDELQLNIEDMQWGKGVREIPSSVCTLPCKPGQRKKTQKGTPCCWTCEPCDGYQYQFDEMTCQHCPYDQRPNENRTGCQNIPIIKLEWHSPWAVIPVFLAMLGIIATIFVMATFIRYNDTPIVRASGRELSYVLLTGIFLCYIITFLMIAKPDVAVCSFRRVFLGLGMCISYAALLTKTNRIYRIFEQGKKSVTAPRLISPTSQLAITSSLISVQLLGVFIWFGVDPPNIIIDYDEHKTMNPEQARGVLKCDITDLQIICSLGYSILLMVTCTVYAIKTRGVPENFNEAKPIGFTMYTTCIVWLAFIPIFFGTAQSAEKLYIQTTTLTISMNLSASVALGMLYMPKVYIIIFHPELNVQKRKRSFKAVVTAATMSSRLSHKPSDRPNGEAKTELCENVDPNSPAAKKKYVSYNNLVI
Experiment [4] deals with Metabotropic glutamate receptor 4 (Rattus norvegicus, UniProt P31423). The experiment in a line: Agonist activity at rat mGluR4 expressed in HEK293 cells assessed as induction of inositol phosphate production by HTRF assay.
Sequence of Metabotropic glutamate receptor 4 (P31423 whole entry): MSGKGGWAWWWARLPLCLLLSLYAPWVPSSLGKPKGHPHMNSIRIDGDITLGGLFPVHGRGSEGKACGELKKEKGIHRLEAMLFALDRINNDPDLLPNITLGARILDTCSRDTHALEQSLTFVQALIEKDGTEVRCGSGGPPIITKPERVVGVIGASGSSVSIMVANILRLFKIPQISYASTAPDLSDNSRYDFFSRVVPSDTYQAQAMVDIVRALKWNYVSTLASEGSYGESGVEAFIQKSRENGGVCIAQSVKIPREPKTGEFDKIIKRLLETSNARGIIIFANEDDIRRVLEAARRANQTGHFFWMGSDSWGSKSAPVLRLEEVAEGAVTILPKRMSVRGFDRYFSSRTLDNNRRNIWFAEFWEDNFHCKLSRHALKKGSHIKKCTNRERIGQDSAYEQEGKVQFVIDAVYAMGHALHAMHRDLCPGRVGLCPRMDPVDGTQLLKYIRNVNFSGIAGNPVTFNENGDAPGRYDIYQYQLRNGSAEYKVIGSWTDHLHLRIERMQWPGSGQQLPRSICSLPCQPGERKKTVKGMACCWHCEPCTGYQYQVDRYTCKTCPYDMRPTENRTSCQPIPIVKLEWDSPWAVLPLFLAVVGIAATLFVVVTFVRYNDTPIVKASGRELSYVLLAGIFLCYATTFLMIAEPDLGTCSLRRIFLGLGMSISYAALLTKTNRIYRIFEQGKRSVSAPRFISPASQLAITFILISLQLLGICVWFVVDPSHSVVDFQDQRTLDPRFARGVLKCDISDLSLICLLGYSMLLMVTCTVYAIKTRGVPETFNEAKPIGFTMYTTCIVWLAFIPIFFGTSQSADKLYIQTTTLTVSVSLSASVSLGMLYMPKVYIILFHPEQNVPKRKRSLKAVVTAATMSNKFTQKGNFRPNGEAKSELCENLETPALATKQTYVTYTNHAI
For experiment [5], the target named is Metabotropic glutamate receptor 8 (Rattus norvegicus, UniProt P70579). In words: Agonist activity at rat mGluR8 expressed in HEK293 cells assessed as induction of inositol phosphate production by HTRF assay.
Sequence of Metabotropic glutamate receptor 8 (P70579 whole entry): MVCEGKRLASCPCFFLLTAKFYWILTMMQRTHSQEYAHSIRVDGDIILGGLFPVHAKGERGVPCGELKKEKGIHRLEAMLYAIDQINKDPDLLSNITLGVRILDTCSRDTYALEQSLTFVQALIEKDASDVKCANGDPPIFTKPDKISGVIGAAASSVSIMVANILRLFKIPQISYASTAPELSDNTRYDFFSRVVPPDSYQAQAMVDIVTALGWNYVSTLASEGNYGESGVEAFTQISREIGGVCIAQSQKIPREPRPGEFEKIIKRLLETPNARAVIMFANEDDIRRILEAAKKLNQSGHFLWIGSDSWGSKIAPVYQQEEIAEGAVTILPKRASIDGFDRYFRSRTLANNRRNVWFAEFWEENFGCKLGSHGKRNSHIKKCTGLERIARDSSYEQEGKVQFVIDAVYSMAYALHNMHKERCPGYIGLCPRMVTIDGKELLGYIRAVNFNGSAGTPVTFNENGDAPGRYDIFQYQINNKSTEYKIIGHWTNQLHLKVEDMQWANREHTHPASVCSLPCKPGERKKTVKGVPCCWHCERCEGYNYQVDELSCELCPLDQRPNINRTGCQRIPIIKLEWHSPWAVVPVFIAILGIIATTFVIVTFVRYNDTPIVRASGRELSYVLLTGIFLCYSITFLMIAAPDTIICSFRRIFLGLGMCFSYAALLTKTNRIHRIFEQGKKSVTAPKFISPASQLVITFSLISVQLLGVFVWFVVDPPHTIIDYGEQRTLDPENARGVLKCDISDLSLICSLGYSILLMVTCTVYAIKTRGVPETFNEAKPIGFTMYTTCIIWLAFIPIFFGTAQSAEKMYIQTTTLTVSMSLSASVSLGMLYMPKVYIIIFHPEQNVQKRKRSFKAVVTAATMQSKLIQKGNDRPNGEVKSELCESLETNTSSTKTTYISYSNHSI
The target in experiment [6] is Metabotropic glutamate receptor 5 (Rattus norvegicus) (UniProt P31424). In words: Agonist activity at rat mGluR5 expressed in HEK293 cells assessed as induction of inositol phosphate production at 100 uM by HTRF assay.
Sequence of Metabotropic glutamate receptor 5 (Rattus norvegicus) (P31424 21-1203 limits assumed): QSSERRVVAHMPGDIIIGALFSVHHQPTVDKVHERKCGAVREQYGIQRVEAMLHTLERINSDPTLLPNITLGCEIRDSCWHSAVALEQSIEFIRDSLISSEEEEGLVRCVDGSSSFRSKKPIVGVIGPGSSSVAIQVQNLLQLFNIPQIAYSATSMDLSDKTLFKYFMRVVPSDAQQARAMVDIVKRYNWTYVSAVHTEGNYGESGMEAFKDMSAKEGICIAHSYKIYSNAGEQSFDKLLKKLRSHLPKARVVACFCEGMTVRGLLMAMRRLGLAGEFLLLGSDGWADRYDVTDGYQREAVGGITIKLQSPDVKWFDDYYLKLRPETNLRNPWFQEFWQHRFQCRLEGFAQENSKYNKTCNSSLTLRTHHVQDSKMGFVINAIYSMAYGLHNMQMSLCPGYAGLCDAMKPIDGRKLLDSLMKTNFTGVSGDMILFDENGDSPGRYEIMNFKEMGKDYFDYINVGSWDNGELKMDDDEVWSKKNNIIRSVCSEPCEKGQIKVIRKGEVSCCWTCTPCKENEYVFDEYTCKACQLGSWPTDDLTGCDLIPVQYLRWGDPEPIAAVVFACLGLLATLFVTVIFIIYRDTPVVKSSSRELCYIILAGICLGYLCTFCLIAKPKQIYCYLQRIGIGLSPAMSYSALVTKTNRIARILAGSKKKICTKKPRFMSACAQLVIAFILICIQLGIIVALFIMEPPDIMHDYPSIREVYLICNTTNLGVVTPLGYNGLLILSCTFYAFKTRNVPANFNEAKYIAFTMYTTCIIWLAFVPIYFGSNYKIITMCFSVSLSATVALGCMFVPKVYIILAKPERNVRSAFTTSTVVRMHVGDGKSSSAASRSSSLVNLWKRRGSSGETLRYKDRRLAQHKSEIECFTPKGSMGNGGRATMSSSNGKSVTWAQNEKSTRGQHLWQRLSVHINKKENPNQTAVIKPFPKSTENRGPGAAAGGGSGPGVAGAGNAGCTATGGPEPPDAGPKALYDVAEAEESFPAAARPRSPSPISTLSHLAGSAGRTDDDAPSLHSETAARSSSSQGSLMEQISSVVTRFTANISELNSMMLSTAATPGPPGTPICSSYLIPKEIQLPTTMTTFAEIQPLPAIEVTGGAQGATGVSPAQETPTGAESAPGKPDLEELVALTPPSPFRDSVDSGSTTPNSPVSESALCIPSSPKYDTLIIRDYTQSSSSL
Experiment [7] deals with Metabotropic glutamate receptor 1 (Rattus norvegicus) (UniProt P23385). The experiment in a line: Agonist activity at rat mGluR1 expressed in HEK293 cells assessed as induction of inositol phosphate production at 100 uM by HTRF assay.

Calls of active or inactive are those of the source. No cut-off for these calls is given here.

Sequence of Metabotropic glutamate receptor 6 (P35349 whole entry): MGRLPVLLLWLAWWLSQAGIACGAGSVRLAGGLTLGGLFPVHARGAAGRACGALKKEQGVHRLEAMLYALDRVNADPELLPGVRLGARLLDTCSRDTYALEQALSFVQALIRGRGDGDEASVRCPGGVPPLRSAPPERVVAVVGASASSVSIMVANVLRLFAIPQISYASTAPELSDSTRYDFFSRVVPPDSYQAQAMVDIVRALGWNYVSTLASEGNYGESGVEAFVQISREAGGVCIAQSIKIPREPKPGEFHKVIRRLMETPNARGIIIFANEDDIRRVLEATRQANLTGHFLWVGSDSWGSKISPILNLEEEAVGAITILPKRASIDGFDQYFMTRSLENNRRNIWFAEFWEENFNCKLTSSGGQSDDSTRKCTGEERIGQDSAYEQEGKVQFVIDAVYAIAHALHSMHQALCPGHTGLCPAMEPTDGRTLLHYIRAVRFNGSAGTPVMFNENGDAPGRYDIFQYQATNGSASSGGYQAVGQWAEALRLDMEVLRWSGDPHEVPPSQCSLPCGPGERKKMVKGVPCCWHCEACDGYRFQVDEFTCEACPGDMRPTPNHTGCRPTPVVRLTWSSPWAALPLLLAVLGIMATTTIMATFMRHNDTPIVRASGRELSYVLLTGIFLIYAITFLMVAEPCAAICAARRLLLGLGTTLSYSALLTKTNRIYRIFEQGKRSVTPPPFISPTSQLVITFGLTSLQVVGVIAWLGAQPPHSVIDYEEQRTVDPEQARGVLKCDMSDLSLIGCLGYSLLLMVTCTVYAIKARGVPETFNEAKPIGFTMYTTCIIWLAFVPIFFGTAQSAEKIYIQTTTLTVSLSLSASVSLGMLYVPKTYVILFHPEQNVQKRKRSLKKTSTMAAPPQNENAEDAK

The EC50 is the concentration at which the effect is half-maximal. With `NC1(C(=O)O)CC1(F)CP(=O)(O)O` (racemic; form 1) [listing 1 of 2 here], the EC50 in experiment [1] is 6.01 µM; in experiment [2], greater than 100 µM; in experiment [3], greater than 100 µM; in experiment [4], 0.3 µM; in experiment [5], 1.25 µM.
On to `NC1(C(=O)O)CC1(F)CP(=O)(O)O` (single isomer, unassigned; form 2), for which the EC50 in experiment [4] worked out at 0.1 µM.
Regarding `N[C@@H](CCC(=O)O)C(=O)O` [GLUTAMIC ACID], the EC50 is 82.2 µM in experiment [1], greater than 100 µM in experiment [3], 12.6 µM in experiment [4] and 21.5 µM in experiment [5].
With `N[C@@]1(C(=O)O)C[C@H]1CP(=O)(O)O`, the EC50 in experiment [4] is 0.03 µM.
As to `NC1(C(=O)O)CC1(F)CP(=O)(O)O` (single isomer, unassigned; form 1), the EC50 in experiment [4] turned out to be 0.12 µM.
The same measure, in the same setting: the value for `NC1(C(=O)O)CC1(F)CP(=O)(O)O` (racemic; form 2) was 0.1 µM; that for `NC1(C(=O)O)CC1(F)CP(=O)(O)O` (stereo in doubt; form 2) was 135 µM.
On to `N[C@@H](CCP(=O)(O)O)C(=O)O`, for which the EC50 in experiment [1] is 3.45 µM; in experiment [3], 426 µM; in experiment [4], 0.03 µM; in experiment [5], 0.11 µM.
Turning to `NC1(C(=O)O)CC1(F)CP(=O)(O)O` (racemic; form 1) [listing 2 of 2 here], the result in experiment [6] and in experiment [7] was inactive.
As to `NC1(C(=O)O)CC1(F)CP(=O)(O)O` (stereo in doubt; form 1), in experiment [4], the EC50 came to 11.4 µM.
